A word on the MIC: it is the smallest concentration in the dilution series that meets the test's criterion for growth inhibition.

The structures appear in SMILES notation. Values after ≈ are worked out from the molar mass of the structure shown.

The source of these data is ChEMBL document CHEMBL3046848, “Synthesis and biological evaluation of novel series of thieno[2,3-d]pyrimidine derivatives as anticancer and antimicrobial agents” (2013).

Common to all, as to format: functional
Test [1] concerns Pseudomonas aeruginosa. Description: Antimicrobial activity against Pseudomonas aeruginosa ATCC9027 assessed as diameter of growth inhibition zone at 1 mg/ml after 24 hr by agar cup diffusion method. To be noted: ATCC9027, 24 h, read-out: IZ.
Test [2] concerns Escherichia coli. The test is described as follows: Antimicrobial activity against Escherichia coli ATCC8739 assessed as diameter of growth inhibition zone at 1 mg/ml after 24 hr by agar cup diffusion method. The note with it: ATCC8739, 24 h, read-out: IZ.
In test [3] the test system is Staphylococcus aureus. Description: Antimicrobial activity against Staphylococcus aureus ATCC6538P assessed as diameter of growth inhibition zone at 1 mg/ml after 24 hr by agar cup diffusion method. To be noted: read-out: IZ.
Test [4] has as its system Escherichia coli. Description: Antimicrobial activity against Escherichia coli ATCC8739 assessed as growth inhibition after 48 hr by two-fold serial dilution method. To be noted: ATCC8739, 48 h.
For test [5], the system named is Candida albicans. Description: Antimicrobial activity against Candida albicans ATCC2091 assessed as diameter of growth inhibition zone at 1 mg/ml after 48 hr by agar cup diffusion method. To be noted: ATCC2091, 48 h, read-out: IZ.
Test [6] deals with Pseudomonas aeruginosa. The test is described as follows: Antimicrobial activity against Pseudomonas aeruginosa ATCC9027 assessed as growth inhibition after 48 hr by two-fold serial dilution method. The note with it: ATCC9027, 48 h.
In test [7] the test system is Staphylococcus aureus. Description: Antimicrobial activity against Staphylococcus aureus ATCC6538P assessed as growth inhibition after 48 hr by two-fold serial dilution method.
For test [8], the system named is Candida albicans. Description: Antimicrobial activity against Candida albicans ATCC2091 assessed as growth inhibition after 48 hr by two-fold serial dilution method. To be noted: ATCC2091, 48 h.

For the molecule `CCCn1cnc2sc(C(N)=O)c(C)c2c1=O`, the zone of inhibition at 1000 µg/mL in the test on Pseudomonas aeruginosa [1] worked out at 12 mm; in the test with Escherichia coli [2] it was 17 mm; in the test on Staphylococcus aureus [3], 10 mm; with Candida albicans [5], 15 mm. Also, the MIC in the test on Escherichia coli [4] stood at 125 µg/mL (≈ 497 µM).

Turning to `Cc1c(C(N)=O)sc2ncn(-c3ccccn3)c(=O)c12`, the zone of inhibition at 1000 µg/mL in the test on Pseudomonas aeruginosa [1] was 12 mm; in the test with Escherichia coli [2], 13 mm; in the test on Staphylococcus aureus [3] it was 10 mm; with Candida albicans [5] it was 15 mm.

In the case of `Cc1c(C(N)=O)sc2nc(SCc3ccccc3)n(-c3ccccc3)c(=O)c12`, the zone of inhibition at 1000 µg/mL was 12 mm in the test on Pseudomonas aeruginosa [1], 15 mm in the test with Escherichia coli [2], 10 mm in the test on Staphylococcus aureus [3] and 15 mm in the test with Candida albicans [5].

As to `Cc1c(C(N)=O)sc2nc(S(C)(=O)=O)n(-c3ccccc3)c(=O)c12`, the zone of inhibition at 1000 µg/mL in the test with Pseudomonas aeruginosa [1] was 12 mm; in the test with Escherichia coli [2], 16 mm; in the test with Staphylococcus aureus [3], 11 mm; in the test on Candida albicans [5] it was 15 mm.

Regarding `CCS(=O)(=O)c1nc2sc(C(N)=O)c(C)c2c(=O)n1-c1ccccc1`, the zone of inhibition at 1000 µg/mL in the test on Pseudomonas aeruginosa [1] came out at 12 mm; in the test on Escherichia coli [2], 13 mm; in the test on Staphylococcus aureus [3], 10 mm; in the test with Candida albicans [5], 15 mm.

`Cc1c(C(N)=O)sc2nc(S(=O)(=O)Cc3ccccc3)n(-c3ccccc3)c(=O)c12`: the zone of inhibition at 1000 µg/mL is 12 mm in the test on Pseudomonas aeruginosa [1], 15 mm in the test with Escherichia coli [2], 10 mm in the test on Staphylococcus aureus [3] and 15 mm in the test with Candida albicans [5].

With `Cc1c(C(N)=O)sc2nc(SCC3CO3)n(-c3ccccc3)c(=O)c12` (centres undefined), the zone of inhibition at 1000 µg/mL is 17 mm in the test with Pseudomonas aeruginosa [1], 15 mm in the test with Escherichia coli [2], 10 mm with Staphylococcus aureus [3] and 15 mm in the test with Candida albicans [5]. Besides, the MIC in the test with Pseudomonas aeruginosa [6] is 125 µg/mL (≈ 335 µM).

Take `Cc1c(C(N)=O)sc2nc(SCC(O)CN3CCOCC3)n(-c3ccccc3)c(=O)c12` (centres undefined): the zone of inhibition at 1000 µg/mL in the test on Pseudomonas aeruginosa [1] turned out to be 12 mm; in the test with Escherichia coli [2], 13 mm; in the test on Staphylococcus aureus [3], 10 mm; in the test on Candida albicans [5], 15 mm.

As to `Cc1c(C(N)=O)sc2nc(SCC(O)CN3CCCCC3)n(-c3ccccc3)c(=O)c12` (centres undefined), the zone of inhibition at 1000 µg/mL with Pseudomonas aeruginosa [1] amounted to 12 mm; in the test with Escherichia coli [2], 15 mm; with Staphylococcus aureus [3], 10 mm; with Candida albicans [5], 15 mm.

Take `Cc1c(C(N)=O)sc2nc(C)n(NC(=S)NCc3ccccc3)c(=O)c12`: the zone of inhibition at 1000 µg/mL was 12 mm in the test with Pseudomonas aeruginosa [1], 13 mm in the test on Escherichia coli [2], 12 mm in the test on Staphylococcus aureus [3] and 15 mm in the test with Candida albicans [5].

For the molecule `Cc1c(C(N)=O)sc2nc(C)n(/N=c3\scc(-c4ccc(Cl)cc4)n3-c3ccccc3)c(=O)c12`, the zone of inhibition at 1000 µg/mL with Pseudomonas aeruginosa [1] stood at 12 mm; in the test on Escherichia coli [2] it was 16 mm; in the test with Staphylococcus aureus [3], 10 mm; in the test with Candida albicans [5], 15 mm. The MIC with Escherichia coli [4] came to 125 µg/mL (≈ 246 µM).

As to `Cc1c(C(N)=O)sc2nc(C)n(/N=c3\scc(-c4ccc(Br)cc4)n3-c3ccccc3)c(=O)c12`, the zone of inhibition at 1000 µg/mL turned out to be 12 mm in the test on Pseudomonas aeruginosa [1], 15 mm with Escherichia coli [2], 10 mm in the test with Staphylococcus aureus [3] and 15 mm with Candida albicans [5].

Regarding `Cc1c(C(N)=O)sc2nc(C)n(/N=c3\scc(-c4ccc(Cl)cc4)n3Cc3ccccc3)c(=O)c12`, the zone of inhibition at 1000 µg/mL in the test on Pseudomonas aeruginosa [1] was 17 mm; with Escherichia coli [2] it was 15 mm; in the test with Staphylococcus aureus [3], 10 mm; with Candida albicans [5] it was 15 mm. The MIC in the test on Pseudomonas aeruginosa [6] turned out to be 125 µg/mL (≈ 239 µM).

Take `Cc1c(C(N)=O)sc2nc(C)n(/N=c3\scc(-c4ccc(Br)cc4)n3Cc3ccccc3)c(=O)c12`: the zone of inhibition at 1000 µg/mL in the test with Pseudomonas aeruginosa [1] turned out to be 12 mm; in the test with Escherichia coli [2] it was 15 mm; in the test with Staphylococcus aureus [3] it was 11 mm; with Candida albicans [5], 15 mm.

On to `Cc1c(C(N)=O)sc2nc(C)n(/N=C3\SCC(=O)N3c3ccccc3)c(=O)c12`, for which the zone of inhibition at 1000 µg/mL in the test on Pseudomonas aeruginosa [1] came to 12 mm; in the test on Escherichia coli [2] it was 15 mm; in the test on Staphylococcus aureus [3] it was 14 mm; in the test on Candida albicans [5], 16 mm. The MIC with Staphylococcus aureus [7] is 250 µg/mL (≈ 605 µM).

On to `Cc1c(C(N)=O)sc2nc(C)n(/N=C3\SCC(=O)N3Cc3ccccc3)c(=O)c12`, for which the zone of inhibition at 1000 µg/mL in the test on Pseudomonas aeruginosa [1] worked out at 12 mm; in the test on Escherichia coli [2], 15 mm; in the test on Staphylococcus aureus [3] it was 14 mm; with Candida albicans [5], 16 mm. Further, the MIC with Staphylococcus aureus [7] was determined as 250 µg/mL (≈ 585 µM).

Consider `Cc1c(C(N)=O)sc2nc(S)n(-c3ccccc3)c(=O)c12`, for which the zone of inhibition at 1000 µg/mL with Pseudomonas aeruginosa [1] came out at 12 mm; in the test with Escherichia coli [2], 15 mm; with Staphylococcus aureus [3], 12 mm; with Candida albicans [5], 15 mm.

Take `Cc1c(C(N)=O)sc2nc(SCC(=O)Nc3ccccc3)n(-c3ccccc3)c(=O)c12`: the zone of inhibition at 1000 µg/mL in the test with Pseudomonas aeruginosa [1] amounted to 12 mm; with Escherichia coli [2], 15 mm; with Staphylococcus aureus [3] it was 10 mm; in the test on Candida albicans [5], 15 mm.

On to `Cc1ccc(NC(=O)CSc2nc3sc(C(N)=O)c(C)c3c(=O)n2-c2ccccc2)cc1`, for which the zone of inhibition at 1000 µg/mL amounted to 12 mm in the test on Pseudomonas aeruginosa [1], 15 mm with Escherichia coli [2], 10 mm with Staphylococcus aureus [3] and 15 mm in the test on Candida albicans [5].

For the molecule `CC(=O)CSc1nc2sc(C(N)=O)c(C)c2c(=O)n1-c1ccccc1`, the zone of inhibition at 1000 µg/mL in the test on Pseudomonas aeruginosa [1] came to 12 mm; in the test with Escherichia coli [2], 15 mm; in the test on Staphylococcus aureus [3], 13 mm; in the test on Candida albicans [5], 15 mm. For the same molecule, the MIC in the test with Staphylococcus aureus [7] came to 250 µg/mL (≈ 669 µM).

`CCOC(=O)CSc1nc2sc(C(N)=O)c(C)c2c(=O)n1-c1ccccc1`: the zone of inhibition at 1000 µg/mL was determined as 12 mm in the test on Pseudomonas aeruginosa [1], 13 mm in the test on Escherichia coli [2], 10 mm in the test on Staphylococcus aureus [3] and 15 mm with Candida albicans [5].

Turning to `CSc1nc2sc(C(N)=O)c(C)c2c(=O)n1-c1ccccc1`, the zone of inhibition at 1000 µg/mL is 12 mm in the test with Pseudomonas aeruginosa [1], 13 mm in the test on Escherichia coli [2], 10 mm with Staphylococcus aureus [3] and 15 mm in the test on Candida albicans [5].

Regarding `CCSc1nc2sc(C(N)=O)c(C)c2c(=O)n1-c1ccccc1`, the zone of inhibition at 1000 µg/mL in the test with Pseudomonas aeruginosa [1] was found to be 12 mm; with Escherichia coli [2], 16 mm; in the test on Staphylococcus aureus [3], 10 mm; in the test with Candida albicans [5], 15 mm.

Regarding `Cc1c(C(N)=O)sc2nc[nH]c(=O)c12`, the zone of inhibition at 1000 µg/mL with Pseudomonas aeruginosa [1] turned out to be 12 mm; in the test on Escherichia coli [2], 13 mm; in the test on Staphylococcus aureus [3], 10 mm; with Candida albicans [5], 15 mm.

As for `Cc1c(C(N)=O)sc2ncn(Cc3ccccc3)c(=O)c12`, the zone of inhibition at 1000 µg/mL is 16 mm with Pseudomonas aeruginosa [1], 15 mm in the test on Escherichia coli [2], 10 mm in the test with Staphylococcus aureus [3] and 15 mm with Candida albicans [5].

For the molecule `Cc1c(C(N)=O)sc2ncn(C3CCCCC3)c(=O)c12`, the zone of inhibition at 1000 µg/mL was 12 mm with Pseudomonas aeruginosa [1], 17 mm in the test with Escherichia coli [2], 10 mm in the test with Staphylococcus aureus [3] and 15 mm with Candida albicans [5]. Besides, in the test with Escherichia coli [4], the MIC is 125 µg/mL (≈ 429 µM).

As to `CCOC(=O)c1c(NC(C)=O)sc(C(N)=O)c1C`, the zone of inhibition at 1000 µg/mL with Pseudomonas aeruginosa [1] is 12 mm; with Escherichia coli [2], 16 mm; with Staphylococcus aureus [3], 10 mm; in the test on Candida albicans [5] it was 15 mm. Besides, the MIC with Escherichia coli [4] was 125 µg/mL (≈ 462 µM).

`Cc1c(C(N)=O)sc2nc(C)n(N)c(=O)c12`: the zone of inhibition at 1000 µg/mL in the test with Pseudomonas aeruginosa [1] worked out at 17 mm; with Escherichia coli [2], 15 mm; with Staphylococcus aureus [3], 10 mm; in the test with Candida albicans [5] it was 15 mm. Besides, the MIC in the test with Pseudomonas aeruginosa [6] was 125 µg/mL (≈ 525 µM).

In the case of `Cc1c(C(N)=O)sc2nc(C)n(NC(=S)Nc3ccccc3)c(=O)c12`, the zone of inhibition at 1000 µg/mL in the test on Pseudomonas aeruginosa [1] was 12 mm; in the test with Escherichia coli [2], 15 mm; in the test on Staphylococcus aureus [3] it was 10 mm; in the test with Candida albicans [5] it was 15 mm.

Consider `CC1(C)S[C@@H]2[C@H](NC(=O)[C@H](N)c3ccccc3)C(=O)N2[C@H]1C(=O)O` [AMPICILLIN], for which the values for the zone of inhibition at 1000 µg/mL with Pseudomonas aeruginosa [1], in the test with Escherichia coli [2] and with Staphylococcus aureus [3] were 18 mm, 26 mm and 30 mm, respectively. Moreover, the minimum inhibitory concentration (MIC) came out at 125 µg/mL (≈ 358 µM) with Pseudomonas aeruginosa [6], 7.81 µg/mL (≈ 22.4 µM) in the test on Escherichia coli [4] and 3.91 µg/mL (≈ 11.2 µM) in the test with Staphylococcus aureus [7].

On to `Clc1ccccc1C(c1ccccc1)(c1ccccc1)n1ccnc1` [CLOTRIMAZOLE], for which, in the test on Candida albicans [5], the zone of inhibition at 1000 µg/mL came to 28 mm. Also, in the test with Candida albicans [8], the MIC was 7.81 µg/mL (≈ 22.6 µM).
